Laboratory results reported in US12023308B2, “Agents for reversing toxic proteinopathies” (THE BROAD INSTITUTE, INC., priority 2019, dated 2024).

What was measured:
[1] = Dose response exposure PK study in male 129-ELITE mice; assay type: in vivo, mouse; conditions: single p.o. doses
Protocol: 4) A pharmacokinetic study was performed by Charles River Labs (CRL) (Worcester, Mass., USA) in fed male 129-ELITE mice (study EF-0024-DA-MI) to determine the dose response exposure of BRD-4780, BRD-1365 and BRD-7709 in plasma, kidney, liver and eye. Brain exposure to BRD-4780 at 30 mg/kg was also evaluated A single dose of BRD-4780 was administered at 30.0 mg/kg or 100 mg/kg orally (p.o) in a clear solution of 5% dextrose in water (D5W). For BRD-1365 and BRD-7709, a single dose of either compound was administered at 10.0 mg/kg, 30.0 mg/kg, 50.0 mg/kg or 100 mg/kg orally (p.o) in a clear solution of 5% dextrose in water (D5W). Blood, kidney, liver and eye tissue were collected from n=3 mice per dose group at six time points post p.o. dose administration (1, 2, 6, 10, 16 and 24 hours) with all three compounds. Brain tissue was collected from n=3 mice per dose group at six time points post p.o. dose administration (1, 2, 6, 10, 16 and 24 hours) with BRD-4780 at 30 mg/kg. Plasma obtained by centrifugation and tissue fragments were homogenized. Plasma and tissue drug concentration was determined by LC-MS/MS and reported as drug concentration in ng/mL for plasma and ng/mg for kidney, liver and eye tissue, plotted as the mean±standard deviation concentration for males for BRD-4780 ([…]), BRD-1365 (FIG. 11K) and BRD-7709 (FIG. 11M). Standard pharmacokinetic parameters were calculated for males for BRD-4780 ([…]), BRD-1365 (FIG. 11O) and BRD-7709 (FIG. 11P).

MUC1-wt = assay: BRD-4780 treatment in fs/+ knock-in mice, kidney MUC1-wt by IF; assay type: in vivo, mouse; conditions: daily oral gavage, 7 days
Protocol: (§1) Mice were anesthetized with 3 L/min 02 mixed with 3% isoflurane using the Combi-Vet® system (Rothacher Medical, Bern, Switzerland) for 5 min. Mouse kidneys were removed, sagittally cut to half and rapidly frozen in Tissue-Tek® O.C.T. Compound, Sakura® Finetek (OCT) (25608-930, VWR) using dry ice and 100% ethanol. Five […] sagittal cryosections (CM1950, Leica) were thaw mounted on microscope slides (Fisherbrand™ Superfrost™ Plus, Fisher Scientific) and kept in the cryostat (at −26° C.) for the duration of the sectioning process. Sections were immersion-fixed for 10 min in 4% PFA (15710, Electron Microscopy Sciences), then washed in PBS. The slides were then subjected to antigen retrieval by immersion in 10 mM citric acid buffer (pH=6), for 10 minutes at 95° C. […]
(§2) MUC1-fs and MUC1-wt mean intensities were calculated in kidney sections of mice treated with either vehicle or BRD-4780 (FIGS. 4A, 4B and 12A). As MUC1-fs and MUC1-wt levels varied in different kidney regions, and as sections might contain different portions of the different kidney regions, the levels of these proteins were analyzed only in NCC-positive distal convoluted tubules. […] Each fluorescent channel intensity was measured and a threshold was set for the identification of NCC positive cells. MUC1-fs and MUC1-wt levels were then calculated only in the NCC positive cells. […]

Plasma stability = assay type: in vitro ADME
Protocol: Plasma stability was determined at 37° C. at 5 hr in plasma. Each compound was prepared in duplicate at 5 μM in plasma diluted 50/50 (v/v) with PBS pH 7.4 (0.95% acetonitrile, 0.05% DMSO). Duplicate plates were prepared. One plate was incubated at 37° C. for 5 hr with a 350 rpm orbital shake, while the other plate was immediately quenched. Each well was quenched by adding acetonitrile to a 3:1 ratio (v/v, ACN/plasma). After quenching, samples were centrifuged (32×G) to pellet precipitated particulates and an aliquot of supernatant was diluted 50/50 (v/v) with water. The resulting solution was analyzed by UPLC-MS/MS with compounds detected by MRM detection on a triple quadrupole mass spectrometer. The compound peak areas at 0 and 5 hr were compared to determine a percent remaining. Percent remaining in plasma was calculated through the following equation: % remaining=[area (5 hr)/area (0 hr)]×100. (LC System, Waters Acquity I-Class; MS System, AB Sciex Triple Quad 4500; Column, Waters Acquity UPLC BEH C18, 1.7 μm, 2.1×50 mm; Mobile Phase A, Water with 0.1% formic acid; Mobile Phase B, Acetonitrile with 0.1% formic acid; Flow Rate, 0.90 mL/min; Column Temperature, 55° C.).

MUC1-fs = assay: BRD-4780 treatment in fs/+ knock-in mice, kidney MUC1-fs by IF and Western blot; assay type: in vivo, mouse
Protocol: as §1, §2

CC(C)[C@@H]1[C@H]2CC[C@H](C2)[C@H]1N (racemic) [BRD-4780, 2-endo-amino-3-exo-isopropylbicyclo[2.2.1]heptane]
dose proportionality of AUC exposures [1]: not dose proportional
MUC1-wt in mouse kidneys (MUC1-wt): no effect on MUC1-wt
plasma stability (Plasma stability): good microsomal and plasma stability
MUC1-fs in kidney tissue at highest dose (MUC1-fs; fs/+ mice, 50 mg/kg daily oral gavage, 7 days): nearly indistinguishable from control (+/+) mouse kidneys
MUC1-fs protein in mouse kidneys (MUC1-fs; mouse, in vivo): dose-dependent removal of mutant MUC1-fs protein
